In PubChem BioAssay AID1845215 (Molecular Pharmacology Branch, DTP, NCI, 2023):

Tested on: SW 1271 complex tumor spheroid viability
Test: Anticancer human tumor SW 1271 cell line growth inhibition;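 note: spheroids exposed to agents for seven days before readout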;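 for viability, T/C: percent of DMSO vehicle control luminescence so 100% = vehicle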
Details: for viability, T/C: stronger effect = lower value; active = viability on the fitted dose curve at most 10% of control; inactive = the rest
Outline: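 Complex tumor spheroids combined malignant cells with endothelial cells and mesenchymal stem cells. DNA-damaging drugs and DNA repair inhibitors were tested alone and in combination, at half-log dilutions down from clinical Cmax (top 10 microM if Cmax unknown), 0.25% DMSO final.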

[1] = curve of first compound, second compound 1 µM
[2] = curve of first compound, second compound 3.16 µM
[3] = curve of first compound, second compound 10 µM
[4] = curve of first compound, second compound 31.6 µM
[5] = curve of first compound, second compound 100 µM
[6] = second compound 1 µM, first compound 0.0316 µM
[7] = second compound 1 µM, first compound 0.1 µM
[8] = second compound 1 µM, first compound 0.316 µM
[9] = second compound 1 µM, first compound 1 µM
[10] = second compound 1 µM, first compound 3.16 µM
[11] = second compound 1 µM, first compound 10 µM
[12] = second compound 3.16 µM, first compound 0.0316 µM
[13] = second compound 3.16 µM, first compound 0.1 µM
[14] = second compound 3.16 µM, first compound 0.316 µM
[15] = second compound 3.16 µM, first compound 1 µM
[16] = second compound 3.16 µM, first compound 3.16 µM
[17] = second compound 3.16 µM, first compound 10 µM
[18] = second compound 10 µM, first compound 0.0316 µM
[19] = second compound 10 µM, first compound 0.1 µM
[20] = second compound 10 µM, first compound 0.316 µM
[21] = second compound 10 µM, first compound 1 µM
[22] = second compound 10 µM, first compound 3.16 µM
[23] = second compound 10 µM, first compound 10 µM
[24] = second compound 31.6 µM, first compound 0.0316 µM
[25] = second compound 31.6 µM, first compound 0.1 µM
[26] = second compound 31.6 µM, first compound 0.316 µM
[27] = second compound 31.6 µM, first compound 1 µM
[28] = second compound 31.6 µM, first compound 3.16 µM
[29] = second compound 31.6 µM, first compound 10 µM
[30] = second compound 100 µM, first compound 0.0316 µM
[31] = second compound 100 µM, first compound 0.1 µM
[32] = second compound 100 µM, first compound 0.316 µM
[33] = second compound 100 µM, first compound 1 µM
[34] = second compound 100 µM, first compound 3.16 µM
[35] = second compound 100 µM, first compound 10 µM

Cn1ncnc1[C@H]1c2n[nH]c(=O)c3cc(F)cc(c23)N[C@@H]1c1ccc(F)cc1 + COc1cc2c(cc1O)CCNC21CSC2c3c(OC(C)=O)c(C)c4c(c3C(COC1=O)N1C(O)C3Cc5cc(C)c(OC)c(O)c5C(C21)N3C)OCO4
12.5 nM: IC50 (curve of first compound, second compound 30 pM)
inactive: viability, T/C (second compound 30 pM, first compound 0.00949 µM) 53.8% | viability, T/C (second compound 30 pM, first compound 0.03 µM) 38.3% | viability, T/C (second compound 30 pM, first compound 0.0949 µM) 30.2% | viability, T/C (second compound 30 pM, first compound 0.3 µM) 36.5% | viability, T/C (second compound 30 pM, first compound 0.949 µM) 32.9% | viability, T/C (second compound 30 pM, first compound 3 µM) 26.3% | viability, T/C (second compound 94.9 pM, first compound 0.00949 µM) 37.2% | viability, T/C (second compound 94.9 pM, first compound 0.03 µM) 33.5% | viability, T/C (second compound 94.9 pM, first compound 0.0949 µM) 32.7% | viability, T/C (second compound 94.9 pM, first compound 0.3 µM) 32.9% | viability, T/C (second compound 94.9 pM, first compound 0.949 µM) 34.7% | viability, T/C (second compound 94.9 pM, first compound 3 µM) 20.4% | viability, T/C (second compound 0.0003 µM, first compound 0.00949 µM) 34.7% | viability, T/C (second compound 0.0003 µM, first compound 0.03 µM) 35% | viability, T/C (second compound 0.0003 µM, first compound 0.0949 µM) 27.7% | viability, T/C (second compound 0.0003 µM, first compound 0.3 µM) 32.8% | viability, T/C (second compound 0.0003 µM, first compound 0.949 µM) 27.4% | viability, T/C (second compound 0.0003 µM, first compound 3 µM) 10.2%
< 9.49 nM: IC50 (curve of first compound, second compound 94.9 pM) | IC50 (curve of first compound, second compound 0.0003 µM) | IC50 (curve of first compound, second compound 0.000949 µM) | IC50 (curve of first compound, second compound 0.003 µM)
active: viability, T/C (second compound 0.000949 µM, first compound 0.00949 µM) 8.93% | viability, T/C (second compound 0.000949 µM, first compound 0.03 µM) 4.22% | viability, T/C (second compound 0.000949 µM, first compound 0.0949 µM) 2.24% | viability, T/C (second compound 0.000949 µM, first compound 0.3 µM) 5.88% | viability, T/C (second compound 0.000949 µM, first compound 0.949 µM) 2.29% | viability, T/C (second compound 0.000949 µM, first compound 3 µM) 0.31% | viability, T/C (second compound 0.003 µM, first compound 0.00949 µM) 0.1% | viability, T/C (second compound 0.003 µM, first compound 0.03 µM) 0.09% | viability, T/C (second compound 0.003 µM, first compound 0.0949 µM) 0.09% | viability, T/C (second compound 0.003 µM, first compound 0.3 µM) 0.1% | viability, T/C (second compound 0.003 µM, first compound 0.949 µM) 0.09% | viability, T/C (second compound 0.003 µM, first compound 3 µM) 0.15%

Cc1sc2c(c1C)C(c1ccc(Cl)cc1)=NC(CC(=O)Nc1ccc(O)cc1)c1nnc(C)n1-2 (stereo unspecified) + Cn1nnc2c(C(N)=O)ncn2c1=O
active: viability, T/C (second compound 1 µM, first compound 0.3 µM) 3.27% | viability, T/C (second compound 1 µM, first compound 0.949 µM) 1.29% | viability, T/C (second compound 1 µM, first compound 3 µM) 1.13% | viability, T/C (second compound 3.16 µM, first compound 0.3 µM) 2.74% | viability, T/C (second compound 3.16 µM, first compound 0.949 µM) 1.12% | viability, T/C (second compound 3.16 µM, first compound 3 µM) 1.25% | viability, T/C (second compound 10 µM, first compound 0.3 µM) 3.68% | viability, T/C (second compound 10 µM, first compound 0.949 µM) 1.21% | viability, T/C (second compound 10 µM, first compound 3 µM) 1.48% | viability, T/C (second compound 31.6 µM, first compound 0.3 µM) 3.27% | viability, T/C (second compound 31.6 µM, first compound 0.949 µM) 1.04% | viability, T/C (second compound 31.6 µM, first compound 3 µM) 0.93% | viability, T/C (second compound 100 µM, first compound 0.3 µM) 2.27% | viability, T/C (second compound 100 µM, first compound 0.949 µM) 1.7% | viability, T/C (second compound 100 µM, first compound 3 µM) 0.96%
70.1 nM: IC50 [4]
85.4 nM: IC50 [2]
69 nM: IC50 [1]
inactive: viability, T/C (second compound 1 µM, first compound 0.00949 µM) 118% | viability, T/C (second compound 1 µM, first compound 0.03 µM) 100% | viability, T/C (second compound 1 µM, first compound 0.0949 µM) 30.9% | viability, T/C (second compound 3.16 µM, first compound 0.00949 µM) 107% | viability, T/C (second compound 3.16 µM, first compound 0.03 µM) 110% | viability, T/C (second compound 3.16 µM, first compound 0.0949 µM) 44.2% | viability, T/C (second compound 10 µM, first compound 0.00949 µM) 116% | viability, T/C (second compound 10 µM, first compound 0.03 µM) 110% | viability, T/C (second compound 10 µM, first compound 0.0949 µM) 37.5% | viability, T/C (second compound 31.6 µM, first compound 0.00949 µM) 104% | viability, T/C (second compound 31.6 µM, first compound 0.03 µM) 96.5% | viability, T/C (second compound 31.6 µM, first compound 0.0949 µM) 33.5% | viability, T/C (second compound 100 µM, first compound 0.00949 µM) 96.8% | viability, T/C (second compound 100 µM, first compound 0.03 µM) 77.6% | viability, T/C (second compound 100 µM, first compound 0.0949 µM) 24%
54.2 nM: IC50 [5]
77.9 nM: IC50 [3]

CC(C)n1c(=O)n(C)c2cnc3cc(F)c(-c4ccc(OCCCN5CCCCC5)nc4)cc3c21 + Cn1nnc2c(C(N)=O)ncn2c1=O
inactive: viability, T/C [6] 99.6% | viability, T/C [7] 90.9% | viability, T/C [8] 93.2% | viability, T/C [9] 101% | viability, T/C [10] 99.6% | viability, T/C [11] 54.7% | viability, T/C [12] 101% | viability, T/C [13] 92.5% | viability, T/C [14] 98.8% | viability, T/C [15] 102% | viability, T/C [16] 88.4% | viability, T/C [17] 50.9% | viability, T/C [18] 87.1% | viability, T/C [19] 97.7% | viability, T/C [20] 94.3% | viability, T/C [21] 79.9% | viability, T/C [22] 75.6% | viability, T/C [23] 41.6% | viability, T/C [24] 93% | viability, T/C [25] 84.5% | viability, T/C [26] 86.1% | viability, T/C [27] 76.8% | viability, T/C [28] 63.5% | viability, T/C [29] 29.5% | viability, T/C [30] 70.5% | viability, T/C [31] 69.6% | viability, T/C [32] 64.2% | viability, T/C [33] 51.5% | viability, T/C [34] 31% | viability, T/C [35] 24.9%
1040 nM: IC50 [5]
4870 nM: IC50 [4]
7490 nM: IC50 [3]
> 10000 nM: IC50 [1] | IC50 [2]

COc1cc2c(cc1O)CCNC21CSC2c3c(OC(C)=O)c(C)c4c(c3C(COC1=O)N1C(O)C3Cc5cc(C)c(OC)c(O)c5C(C21)N3C)OCO4 (stereo unspecified)
0.156 nM [middle of 10 runs]: IC50 (compound alone, run of 12/16/2019)
inactive: viability, T/C (compound 30 pM) 89.8% [middle of 10 runs] | viability, T/C (compound 94.9 pM) 64.2% [middle of 10 runs] | viability, T/C (compound 0.0003 µM) 34.4% [middle of 10 runs]
active: viability, T/C (compound 0.003 µM) 0.11% [middle of 6 runs]
3.63% [middle of 10 runs]: viability, T/C (compound 0.000949 µM)

COc1ccc([C@@H](O)c2cc(-c3ncnc4cc(N5CCOCC5)ccc34)c(F)cc2Cl)nn1 + Cn1nnc2c(C(N)=O)ncn2c1=O
1810 nM: IC50 [3]
active: viability, T/C [17] 10%
1520 nM: IC50 [2]
799 nM: IC50 [1]
808 nM: IC50 [5]
inactive: viability, T/C [6] 95.7% | viability, T/C [7] 89.6% | viability, T/C [8] 91.7% | viability, T/C [9] 39.6% | viability, T/C [10] 38.3% | viability, T/C [11] 11% | viability, T/C [12] 115% | viability, T/C [13] 97.8% | viability, T/C [14] 82.5% | viability, T/C [15] 60.7% | viability, T/C [16] 32.3% | viability, T/C [18] 97.1% | viability, T/C [19] 103% | viability, T/C [20] 85.2% | viability, T/C [21] 65.1% | viability, T/C [22] 36.2% | viability, T/C [23] 10.9% | viability, T/C [24] 101% | viability, T/C [25] 96.2% | viability, T/C [26] 93.4% | viability, T/C [27] 55.6% | viability, T/C [28] 30.3% | viability, T/C [29] 10.2% | viability, T/C [30] 83.8% | viability, T/C [31] 82.3% | viability, T/C [32] 66.8% | viability, T/C [33] 42.9% | viability, T/C [34] 28.6% | viability, T/C [35] 9.15%
1410 nM: IC50 [4]
